Results reported in patent US4999424A, “GAR transformylase inhibitor” (The Pennsylvania State University, priority 1988, dated 1991).
Read-outs that look alike come from different tables or passages of the source.

Key:
[1] = tested on: intracellular pools of ATP and GTP; conditions: tested against solid tumors in mice; cited from earlier work
[2] = tested on: X-5563; conditions: in vivo and in vitro; cited from earlier work
[3] = tested on: P388 leukemia; conditions: in vivo and in vitro; cited from earlier work
[4] = tested on: B-16 melanoma; conditions: in vivo and in vitro; cited from earlier work
[5] = tested on: HL-60; conditions: in vivo and in vitro; cited from earlier work
[6] = tested on: solid tumors; conditions: variety of solid tumors in mice; cited from earlier work
[7] = tested on: GAR TFase; conditions: indirectly shown, solid tumors in mice; cited from earlier work
[8] = tested on: 6C3HED lymphosarcoma; conditions: in vivo and in vitro; cited from earlier work
[9] = tested on: L1210 leukemia; conditions: in vivo and in vitro; cited from earlier work
[10] = biological target: T1, E. coli GAR TFase (Escherichia coli, UniProt P08179); experiment: E. coli GAR TFase inhibition/activity assay (5,8-dideazafolate absorbance at 295 nm); format: biochemical
T1 construct: made in house; host or cells: E. coli TX393 with multicopy plasmid pJS85, or E. coli TX635 with lambda pL plasmid pJS119 or pJS167
T1 sequence (P08179 1-212): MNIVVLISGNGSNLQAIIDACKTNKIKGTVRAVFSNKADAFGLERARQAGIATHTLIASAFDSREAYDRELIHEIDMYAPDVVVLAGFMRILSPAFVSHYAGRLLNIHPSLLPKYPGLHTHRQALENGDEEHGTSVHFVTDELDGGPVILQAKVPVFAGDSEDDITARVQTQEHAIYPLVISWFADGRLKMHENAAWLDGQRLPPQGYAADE
Method: (§1) All assays were carried out by following the increase of 5,8-dideazafolate absorbence at 295 nm in buffered medium at 26° C. To initiate the reaction, enzyme (1 nM final concentration) was added to a mixture of saturating substrates and variable amounts of inhibitor. A characteristic family of curves was obtained, showing slow, tight-binding inhibition. See, Morrison, Trends Biochem. Sc., 7, 102 (1982) and Morrison, et al., Adv. Enzymology, Relat. Areas Mol. Biol., 57, 201-301 (1987).
(§2) In analyzing the biological activity of the compounds of the present invention, GAR TFase from E. coli was used. This enzyme behaves like the mammalian and avian enzyme with respect to substrate specificity, yet is a simple and effective system having only one biological activity. That is, unlike the avian trifunctional GAR TFase, the E. coli species has a sole function. This follows from the genetic evidence of Smith and Daum, J. Biol. Chem., 262, 10565-10569 (1987) as w®11 as the work of Schrimsher et al., Biochemistry, 25, 4366-4371 (1986) who have shown that […] from E. coli is a monofunctional protein, whereas, in chicken it belongs to a trifunctional protein containing, the activates: GAR SYNthase, GAR TFase, and AIR SYNthase.
The E. coli GAR TFase binding constants for the compounds of the present invention and other folate analogs are shown in Table I below:
Table II illustrates the specificity of beta-TGDDF for GAR TFase in comparison with other reduced-folate utilizing enzymes. This test, was conducted using the same [I]/[E]ratios as stated previously.

[11] = biological target: T1, E. coli GAR TFase; experiment: Fluorescence titration, dissociation constant for E. coli GAR TFase; format: binding
Method: The thermodynamic dissociation constant, KD, for the E.β-TGDDF complex was measured by following the enhancement of the inhibitor's 395 nm fluorescence (excitation at 275 nm) upon binding to GAR TFase. A concentrated E. coli GAR TFase solution was added to an 11 nM solution of purified β-TGDDF; for each addition, the fluorescence at three different wavelengths (396, 400, and 405 nm) was measured. Fluorescence titration data was analyzed by the method of Taira and Benkovic, J. Med. Chem., 31, 129-137 (1988).
as §2
(§3) The E. coli GAR TFase binding constants for the compounds of the present invention and other folate analogs are shown in Table I below: […]

[12] = substrate: NCC(=O)N[C@@H]1O[C@H](COP(=O)(O)O)[C@@H](O)[C@H]1O; experiment: E. coli GAR TFase inhibition/activity assay (5,8-dideazafolate absorbance at 295 nm); format: biochemical; conditions: other: Table I, 26.0 °C
Method: as §1, §2, §3

[13] = substrate: Nc1nc(O)c2cc(CN(C=O)c3ccc(C(=O)N[C@@H](CCC(=O)O)C(=O)O)cc3)ccc2n1; experiment: as above; format: biochemical; conditions: other: Table I, 26.0 °C
Method: as §1, §2, §3

Q: For `Nc1nc2c(c(=O)[nH]1)CC(CCc1ccc(C(=O)NC(CCC(=O)O)C(=O)O)cc1)CN2` (stereo not shown) [DDATHF], which “Effect on intracellular pools of ATP and GTP” value [1] is on record?
A: depletion of intracellular pools of ATP and GTP

Q: And the Anti-tumor activity [2]?
A: anti-tumor,activity

Q: And the Anti-tumor activity [3]?
A: anti-tumor,activity

Q: And the Anti-tumor activity [4]?
A: anti-tumor,activity

Q: What about the Anti-tumor activity [5] of the same molecule?
A: anti-tumor,activity

Q: What about the “Activity against solid tumors” value [6] of the same molecule?
A: impressive activity

Q: And the “Inhibition of GAR TFase” value [7]?
A: indirectly shown to inhibit GAR TFase

Q: What about the Anti-tumor activity [8] of the same molecule?
A: anti-tumor,activity

Q: And the Anti-tumor activity [9]?
A: anti-tumor,activity

Q: With `Nc1nc2ccc(CNc3ccc(C(=O)N[C@@H](CCC(=O)O)C(=O)O)cc3)cc2c(=O)[nH]1` [DDF, 5,8-dideazafolate, reference compound] as the molecule, how does the Ki [10] read?
A: 28100 nM

Q: Which Ki ([10]; Table I, E. coli GAR TFase, read-out: KI) does the source give for `Nc1nc2ccc(CN(C(=O)CSCC(=O)NC3O[C@H](CO)[C@@H](O)[C@H]3O)c3ccc(C(=O)N[C@@H](CCC(=O)O)C(=O)O)cc3)cc2c(=O)[nH]1` (stereo partly drawn) [alpha,beta-dephospho-TGDDF] here?
A: 1700 nM

Q: With `Nc1nc2ccc(CN(C(=O)CSCC(=O)N[C@H]3O[C@H](COP(=O)(O)O)[C@@H](O)[C@H]3O)c3ccc(C(=O)N[C@@H](CCC(=O)O)C(=O)O)cc3)cc2c(=O)[nH]1` [alpha-TGDDF] as the molecule, how does the “binding affinity for GAR TFase (comparison of anomers)” value ([11]; alpha- versus beta-anomer) read?
A: lower than the beta-anomer

Q: What about the Kd ([11]; alpha-anomer, read-out: KD) of the same molecule?
A: 5.8 nM

Q: Which “Activity against solid tumors” value [6] does the source give for `CN(Cc1cnc2nc(N)nc(N)c2n1)c1ccc(C(=O)N[C@@H](CCC(=O)O)C(=O)O)cc1` [methotrexate] here?
A: minimal activity

B1: E. coli GAR TFase (Escherichia coli K-12) (protein)
chain: T1 sequence (P08179 1-212)
notes: made in house; host or cells: E. coli TX393 with multicopy plasmid pJS85, or E. coli TX635 with lambda pL plasmid pJS119 or pJS167
Q: For B1, which Km [12] is on record?
A: 20 µM

Q: What about the Km [13] of the same molecule?
A: 36 µM
